Reference: patent US20130071854A1, “METHODS FOR THE IDENTIFICATION AND CHARACTERIZATION OF HDAC INTERACTING COMPOUNDS” (priority 2009, published 2013)
Read-outs that look alike come from different tables or passages of the source.

Legend:
[1] = biological target: T1, non-HDAC targets (e.g. BZW2, ISOC2, aldehyde dehydrogenases) (Homo sapiens, UniProt Q96AB3); assay: Chemoproteomic binding profiling, K562 cell extract, SAHA/ITF2357 probe matrix (Kd app); settings: protein ISOC2; selected HDACi off-targets
T1 construct: endogenous in cells; host or cells: K562 whole cell extract
T1 sequence (Q96AB3 1-205): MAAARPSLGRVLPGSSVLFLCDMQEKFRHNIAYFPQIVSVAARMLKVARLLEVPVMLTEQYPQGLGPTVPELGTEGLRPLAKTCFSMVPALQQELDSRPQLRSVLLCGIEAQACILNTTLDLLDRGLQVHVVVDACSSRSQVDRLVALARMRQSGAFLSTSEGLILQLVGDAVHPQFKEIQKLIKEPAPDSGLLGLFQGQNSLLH

[2] = biological target: T2, non-HDAC targets (e.g. BZW2, ISOC2, aldehyde dehydrogenases) (Homo sapiens, UniProt P16152); assay: as above; settings: protein CBR1; selected HDACi off-targets
T2 construct: Kd^app CBR1; other: protein CBR1; selected HDACi off-targets
T2 sequence (P16152 1-277): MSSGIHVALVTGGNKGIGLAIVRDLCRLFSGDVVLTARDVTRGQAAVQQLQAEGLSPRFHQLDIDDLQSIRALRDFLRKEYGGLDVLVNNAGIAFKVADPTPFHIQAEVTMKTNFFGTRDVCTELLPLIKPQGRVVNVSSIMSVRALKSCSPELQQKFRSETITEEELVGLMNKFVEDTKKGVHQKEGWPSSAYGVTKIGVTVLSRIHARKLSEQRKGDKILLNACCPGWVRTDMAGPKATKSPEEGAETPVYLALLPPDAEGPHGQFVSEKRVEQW

[3] = biological target: T3, non-HDAC targets (e.g. BZW2, ISOC2, aldehyde dehydrogenases) (Homo sapiens, UniProt O94788); assay: as above; settings: protein ALDH1A2; selected HDACi off-targets
T3 construct: endogenous in cells; host or cells: K562 whole cell extract
T3 sequence (O94788 1-518): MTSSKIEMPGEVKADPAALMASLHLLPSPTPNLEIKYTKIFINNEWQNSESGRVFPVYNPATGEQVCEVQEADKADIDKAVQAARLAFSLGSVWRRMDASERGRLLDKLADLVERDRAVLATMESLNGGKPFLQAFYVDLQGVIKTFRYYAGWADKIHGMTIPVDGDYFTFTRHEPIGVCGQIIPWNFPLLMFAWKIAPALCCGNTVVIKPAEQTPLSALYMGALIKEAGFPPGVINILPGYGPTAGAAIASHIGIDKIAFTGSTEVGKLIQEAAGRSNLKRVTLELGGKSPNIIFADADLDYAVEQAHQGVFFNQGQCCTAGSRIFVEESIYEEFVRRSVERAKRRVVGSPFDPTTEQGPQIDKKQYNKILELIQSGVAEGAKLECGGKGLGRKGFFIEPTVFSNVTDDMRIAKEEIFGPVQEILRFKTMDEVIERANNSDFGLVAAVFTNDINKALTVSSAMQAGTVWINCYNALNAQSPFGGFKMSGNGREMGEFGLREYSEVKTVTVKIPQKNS

[4] = biological target: T4, non-HDAC targets (e.g. BZW2, ISOC2, aldehyde dehydrogenases) (Homo sapiens, UniProt Q08209); assay: as above; settings: protein PPP3CA; selected HDACi off-targets
T4 construct: Kd^app PPP3CA; other: protein PPP3CA; selected HDACi off-targets

[5] = biological target: T5, non-HDAC targets (e.g. BZW2, ISOC2, aldehyde dehydrogenases) (Homo sapiens, UniProt Q9Y6E2); assay: as above; settings: protein BZW2; selected HDACi off-targets
T5 construct: endogenous in cells; host or cells: K562 whole cell extract
T5 sequence (Q9Y6E2 1-419): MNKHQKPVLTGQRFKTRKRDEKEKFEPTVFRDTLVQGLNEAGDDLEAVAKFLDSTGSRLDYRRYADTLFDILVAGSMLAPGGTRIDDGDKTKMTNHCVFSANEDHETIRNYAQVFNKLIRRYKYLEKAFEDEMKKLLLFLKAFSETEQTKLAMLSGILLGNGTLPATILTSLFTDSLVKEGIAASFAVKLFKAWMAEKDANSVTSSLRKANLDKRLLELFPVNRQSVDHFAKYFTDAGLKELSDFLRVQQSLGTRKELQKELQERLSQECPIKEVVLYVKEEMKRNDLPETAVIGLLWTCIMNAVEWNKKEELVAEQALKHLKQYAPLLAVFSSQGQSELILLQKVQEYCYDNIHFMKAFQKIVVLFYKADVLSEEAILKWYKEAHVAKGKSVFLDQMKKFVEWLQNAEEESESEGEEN

NuRD complex = assay: as above; set-up: species or system human; settings: NuRD complex
RERE = assay: Chemoproteomic binding profiling, K562 cell extract, SAHA/ITF2357 probe matrix (Kd app), ELSA (ELM-SANT) domain protein; set-up: species or system human; settings: protein RERE; ELSA (ELM-SANT) domain proteins
CoREST complex = assay: Chemoproteomic binding profiling, K562 cell extract, SAHA/ITF2357 probe matrix (Kd app); set-up: species or system human; settings: CoREST complex
MIER3 = assay: Chemoproteomic binding profiling, K562 cell extract, SAHA/ITF2357 probe matrix (Kd app), ELSA (ELM-SANT) domain protein; set-up: species or system human; settings: ELSA (ELM-SANT) domain proteins
MIER1 = assay: as above; set-up: species or system human; settings: ELSA (ELM-SANT) domain proteins
MIER2 = assay: as above; set-up: species or system human; settings: ELSA (ELM-SANT) domain proteins
EHMT2 = assay: Chemoproteomic binding profiling, K562 cell extract, SAHA/ITF2357 probe matrix (Kd app), ELSA (ELM-SANT) domain proteins group; set-up: species or system human; settings: protein EHMT2
[6] = tested on: T6, MiDAC complex (HDAC1/2, DNTTIP1, CDYL, MIDEAS); assay: Chemoproteomic binding profiling, K562 cell extract, SAHA/ITF2357 probe matrix (Kd app); set-up: species or system human
T6 construct: Kd^app MIDEAS; other: protein MIDEAS; MiDAC complex; Kd^app DNTTIP1; other: protein DNTTIP1

Sin3 complex = assay: as above; set-up: species or system human
[7] = protein GATAD2A, read-out: Kd^app GATAD2A
[8] = protein GATAD2B, read-out: Kd^app GATAD2B
[9] = protein MBD3, read-out: Kd^app MBD3
[10] = protein MTA1, read-out: Kd^app MTA1
[11] = protein MTA2, read-out: Kd^app MTA2
[12] = protein MTA3, read-out: Kd^app MTA3
[13] = protein GSE1, read-out: Kd^app GSE1
[14] = protein HMG20A, read-out: Kd^app HMG20A
[15] = protein HMG20B, read-out: Kd^app HMG20B
[16] = protein PHF21A, read-out: Kd^app PHF21A
[17] = protein RCOR1, read-out: Kd^app RCOR1
[18] = protein RCOR3, read-out: Kd^app RCOR3
[19] = protein ZMYM2, read-out: Kd^app ZMYM2

| Kd [1] | Kd [2] | Kd [3] | Kd [4] | Kd [5] | Structure (SMILES) | Kd (NuRD complex; [7]) | Kd (NuRD complex; [8]) | Kd (NuRD complex; [9]) | Kd (NuRD complex; [10]) | Kd (NuRD complex; [11]) | Kd (NuRD complex; [12]) | Kd (RERE) | Kd (CoREST complex; [13]) | Kd (CoREST complex; [14]) | Kd (CoREST complex; [15]) | Kd (CoREST complex; [16]) | Kd (CoREST complex; [17]) | Kd (CoREST complex; [18]) | Kd (CoREST complex; [19]) | Kd (MIER3) | other results |
| --- | --- | --- | --- | --- | --- | --- | --- | --- | --- | --- | --- | --- | --- | --- | --- | --- | --- | --- | --- | --- | --- |
| > 10 µM | 0.88 µM | > 10 µM | 1.51 µM | 1.71 µM | O=C(/C=C/c1ccc(CN(CCO)CCc2c[nH]c3ccccc23)cc1)NO [dacinostat] | 0.02 µM | 0.02 µM | 0.02 µM | 0.02 µM | 0.02 µM | 0.02 µM | > 10 µM | 0.01 µM | 0.01 µM | 0.01 µM | 0.02 µM | 0.01 µM | 0.01 µM | 0.01 µM | 0.01 µM | Kd (MIER1): 0.02 µM |
| 5 µM | 19 µM | > 10 µM | 40 µM | 4 µM | Cn1cc(C(=O)Cc2ccccc2)cc1C=CC(=O)NO [MC-1293] | > 10 µM | > 10 µM | > 10 µM | > 10 µM | > 10 µM | > 10 µM | > 10 µM | > 10 µM | > 10 µM | > 10 µM | > 10 µM | > 10 µM | > 10 µM | > 10 µM | 209 µM | Kd (NuRD complex; protein CHD4, read-out: Kd^app CHD4): > 10 µM; Kd (NuRD complex; protein MBD2, read-out: Kd^app MBD2): > 10 µM; Kd (MIER2): > 10 µM; Kd (EHMT2): > 10 µM; Kd (CoREST complex; protein RCOR2, read-out: Kd^app RCOR2): > 10 µM; Kd (CoREST complex; protein ZMYM3, read-out: Kd^app ZMYM3): > 10 µM; Kd ([6]; protein DNTTIP1, read-out: Kd^app DNTTIP1): > 10 µM; Kd ([6]; protein MIDEAS, read-out: Kd^app MIDEAS): > 10 µM; Kd (MIER1): > 10 µM; Kd (Sin3 complex; protein SAP30, read-out: Kd^app SAP30): 164 µM; Kd (Sin3 complex; protein SIN3A, read-out: Kd^app SIN3A): > 10 µM; Kd (Sin3 complex; protein SIN3B, read-out: Kd^app SIN3B): > 10 µM |
| > 10 µM | 8.23 µM | > 10 µM | 12.1 µM | > 10 µM | Cc1[nH]c2ccccc2c1CCNCc1ccc(/C=C/C(=O)NO)cc1 [panobinostat] |  |  |  |  |  |  |  |  |  |  |  |  |  |  |  |  |
